Assay results from publication PMC7092914 (Biochemical and Biophysical Research Communications, 2005).
Entries after “also recorded” stand apart in the source; their conditions may differ.

Biological target: SARS-CoV 3CL protease (Severe acute respiratory syndrome coronavirus, UniProt P0C6X7)
Test: biochemical
Assay type: biochemical

| SMILES | potency relative to hexachlorophene (times less potent) | IC50 [µM] | apparent Vmax in presence of inhibitor [µmol/min/mg] | dependence of inhibitory effect on preincubation time | inhibition mechanism / binding mode |
| --- | --- | --- | --- | --- | --- |
| Oc1cc(Cl)ccc1Oc1ccc(Cl)cc1Cl [triclosan] | about 10 times |  |  |  |  |
| Oc1c(Cl)cc(Cl)c(Cl)c1Cc1c(O)c(Cl)cc(Cl)c1Cl [hexachlorophene] |  | 5 | 6.98 ± 0.16 | dependent on preincubation time; also recorded: slowly binding inhibitor | classic competitive inhibitor |
| Cc1c(O)cccc1C(=O)N[C@@H](CSc1ccccc1)[C@H](O)CN1C[C@H]2CCCC[C@H]2C[C@H]1C(=O)NC(C)(C)C [nelfinavir] | about 10 times | 46 |  |  |  |
